Source: patent publication US11708357B2, “Crystal form of pyrrolidinyl urea derivative and application thereof” (ZHANGZHOU PIEN TZE HUANG PHARMACEUTICAL CO., LTD., priority 2020, dated 2023)

Legend:
Assay type in all cases: in vitro ADME
[1] = Metabolic stability in rat liver microsomes; settings: pH 7.4, 0.5 mg protein/mL, read-out: Intrinsic clearance rate of liver microsomes, Rat
Procedure: The metabolic stability of the test compound in human and rat liver microsomes was tested.
Test compound (10 mM), Testosterone (reference compound, 10 mM), Diclofenac (reference compound, 10 mM) and Propafenone (reference compound, 10 mM).
1. 100 mM potassium phosphate buffer (pH 7.4).
1. Intermediate solution: 45 μL of DMSO (with 450 μL of 1:1 methanol/water) was used to dilute 5 μL of the sample for test compound or reference compound.
2. Working solution: 450 μL of 100 mM potassium phosphate buffer was used to dilute the intermediate solution.
10 μL of the working solution of the test compound or reference compound was added to all plates (T0, T5, T10, T20, T30, T60, and NCF60).
680 μL of liver microsome solution was added to each well of 96-well plates, then 80 μL was added to each well of the plates, and the plates were placed at 37° C. for pre-incubation for approximately 10 minutes.
10 μL of 100 mM potassium phosphate buffer was added to each well of the NCF60 plate.
After the pre-incubation, 90 μL NADPH regeneration system working solution was added to each well of the 96-well plates, and then 10 μL was added to each well of the plates to initiate the reaction.
Incubation for an appropriate time (such as 5, 10, 20, 30, and 60 minutes). […]
The half-life T1/2 and the intrinsic clearance rate by liver microsome Clint(mic) were calculated by the following formulas: Ct=Cij·e^−k^s^·i • when […]

CYP2C19 = molecular target: T1, CYP2C19 (Homo sapiens, UniProt P33261); experiment: Cytochrome P450 isozyme inhibitory activity test, CYP2C19; settings: liver microsomes; human liver microsome
T1 construct: from tissue; host or cells: human liver microsomes
T1 sequence (P33261 whole entry): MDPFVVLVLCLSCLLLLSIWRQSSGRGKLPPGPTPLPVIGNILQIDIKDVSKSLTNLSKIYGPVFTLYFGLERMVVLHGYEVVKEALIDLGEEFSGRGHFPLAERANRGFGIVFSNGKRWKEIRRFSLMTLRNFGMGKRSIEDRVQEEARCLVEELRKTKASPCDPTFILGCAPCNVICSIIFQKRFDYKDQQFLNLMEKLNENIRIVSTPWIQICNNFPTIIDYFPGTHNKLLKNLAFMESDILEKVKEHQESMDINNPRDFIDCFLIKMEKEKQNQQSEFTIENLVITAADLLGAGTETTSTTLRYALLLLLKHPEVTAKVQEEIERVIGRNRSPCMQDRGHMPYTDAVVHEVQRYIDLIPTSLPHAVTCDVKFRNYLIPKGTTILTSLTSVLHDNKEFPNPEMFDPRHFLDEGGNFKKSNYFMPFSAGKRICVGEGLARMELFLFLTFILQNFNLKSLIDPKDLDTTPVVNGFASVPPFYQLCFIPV
Procedure: The inhibitory activities of the test compound on different subtypes of human cytochrome P450 isozymes were determined. The test compound, standard inhibitor (100× final concentration), and a mixed substrate working solution were prepared; the microsome frozen in −80° C. refrigerator was thawed. […]

[2] = Plasma protein binding rate (PPB) test, human plasma; settings: 2 μM, dialysis 37° C. 4 hours
Procedure: (§1) The protein binding rates of the test compound in the plasma of humans and SD rats were determined.
(§2) 796 μL of blank plasma from humans and SD rats (plasma purchased from BioreclamationIVT) were taken, 4 μL of working solution of the test compound (400 μM) or warfarin working solution (400 μM) was added and the final concentration of the test compound or warfarin was 2 μM. The sample was mixed thoroughly. […] All samples were analyzed by LC/MS/MS after protein precipitation, and the plasma protein unbound rate, binding rate and recovery rate was calculated according to the following formula: % unbound rate=100*free compound concentration at the membrane buffer side/total compound concentration at the membrane plasma side, % protein binding rate=100−% unbound rate, % recovery rate=100*(free compound concentration at the membrane buffer side+total compound concentration at the membrane plasma side)/total compound concentration before dialysis.

[3] = Plasma protein binding rate (PPB) test, SD rat plasma; settings: 2 μM, dialysis 37° C. 4 hours
Procedure: as §1, §2

With COCCN1C[C@@H](n2ccc(F)c2)[C@H](NC(=O)Nc2c(C)c(-c3cnc(C4(F)COC4)nc3)nn2-c2ccccc2)C1 [Compound of formula (I)] the CLint scaled [1] was 24.9 mL/min/kg, the IC50 at 10 min (CYP2C19) was over 50 µM and the “Plasma protein unbound rate, Human plasma” value [2] was 13.2%. The “Plasma protein unbound rate, SD rat plasma” value [3] was 7.1%.
